Read-outs that look alike come from different tables or passages of the source.
Assay: Dog PK study of C1 (S) enantiomer, single oral dose, plasma and whole blood by chiral LC-MS/MS
Format: in vivo, beagle dogs
Conditions: for AUC(0-t): read-out: NCA AUC0-last; for AUC(0-inf): read-out: NCA AUC0-∞
Protocol: This study assessed the in vivo pharmacokinetic (PK) behavior of a single oral dose of the C1 (S) enantiomer in beagle dogs (Charles River study# 20104466). Solutions of C1 (S) enantiomer were dosed by oral gavage (10mg/kg) to a group of dogs (n=3). Blood samples were collected pre-dose and at 0.25, 0.5, 1, 2, 4, and 8 hours following dosing on Day 1. Blood samples were also collected on Days1, 2, 3, 5, 7, 10, 14, 17, 21, 25, 28, 32, 35, 39, 43, and 45. A portion of each whole blood sample was processed to plasma. Test article concentrations in plasma and whole blood were determined using liquid chromatography tandem mass spectrometry (LC-MS/MS).
Calibration curves were constructed by spiking racemic 1-[6-[5-(3,5-dichloro-4-fluoro-phenyl)-5-(trifluoromethyl)-4H-isothiazol-3-yl]spiro[1H-isobenzofuran-3,3′-azetidine]-1′-yl]-3,3,3-trifluoro-propan-1-one into aliquots of blank K2EDTA beagle plasma or whole blood (Bioreclamation, Westbury, N.Y.) at the following nominal concentrations: 5, 10, 20, 50, 100, 200, 500, 1000, 2000, 5000, and 10000 ng/mL. Quality control samples (QCs) were prepared in the same manner at the following concentrations: 15, 30, 150, 800, 1600, 4000, and 8000 ng/mL.
Samples (double blanks, blank+IS, blank+drug, standards, QC samples, and study samples) were extracted using a protein precipitation procedure. A 50 μL aliquot of plasma or blood was transferred into a deep well 96-well plate. To the sample aliquot, 250 μL of an internal standard (IS) solution for plasma or 300 μL for blood was added. The internal standard solution contained Afoxolaner at 50 ng/mL in methanol. For double blanks and blank+drug, neat methanol instead of IS was added. The 96-well plate was capped, shaken for ten minutes, and centrifuged at 5000 relative centrifugal force (RCF) for 10 minutes at 15° C. A 150-200 μL aliquot of the resulting supernatant of each sample was transferred to a clean, 96-well microtiter plate. The microtiter plate was capped and subjected to LC-MS/MS analysis.
The LC-MS/MS system consisted of a Leap autosampler, an Agilent 1100 series liquid chromatography pump, and a SciexAPI4000 mass spectrometer operated in triple quadrupole mode. A ChiralPak IA column (4.6×150mm, 5μm particle, Supplier Daicel PN 80324)at room temperature was used with water as mobile phase A and neat acetonitrile as mobile phase B. The LC gradient, MS parameters, and gas parameters are shown in the tables 2-4, respectively.
The mass spectrometer (MS) was operated in negative Turbo IonSpray™ mode with Multiple Reaction Monitoring (MRM).
Following LC-MS/MS analysis, peak area ratios were calculated (analyte peak area divided by internal standard peak area). Standard curves were created by generating least squares fitting plots of peak area ratio versus nominal concentration. Sample concentrations were calculated from the results of the least squares fits.
Cmax and Tmax are the observed maximum drug concentration and the time at which the maximum concentration occurs, respectively. Area under the curve (AUC) was calculated using the linear trapezoid method. To calculate half-lives (t1/2), a least squares regression was performed on a log concentration (C) versus time (t) plot (semi-log plot) to obtain the slope, k. The t1/2 is equal to 0.693/k. The t1/2 was calculated using data points in the elimination phase. For oral PK, Cl/F=Dose/AUC.
In this report, PK calculations were normalized to the measured dose solution concentrations. Note that in all figures and tables below, the nominal dose is listed.

[1] = dog, plasma, Beagle, oral 10 mg/kg, read-out: Plasma Concentration
[2] = dog, whole blood, Beagle, oral 10 mg/kg, read-out: Blood Concentration
[3] = dog, plasma, Beagle, oral gavage 10 mg/kg
[4] = dog, whole blood, Beagle, oral gavage 10 mg/kg
[5] = plasma, Beagle, oral gavage 10 mg/kg, 10 mg/kg
[6] = same dose level, beagle vs. mongrels

For `O=C(CC(F)(F)F)N1CC2(C1)OCc1cc(C3=NS[C@@](c4cc(Cl)c(F)c(Cl)c4)(C(F)(F)F)C3)ccc12` [C1 (S) enantiomer, (S)-1-[6-[5-(3,5-dichloro-4-fluoro-phenyl)-5-(trifluoromethyl)-4H-isothiazol-3-yl]spiro[1H-isobenzofuran-3,3′-azetidine]-1′-yl]-3,3,3-trifluoro-propan-1-one], which “Blood Concentration” value (1080 hr, Beagle, oral 10 mg/kg) is on record?
Its value is “BQL ^b”.

And the “concentration in plasma relative to blood concentration” value (after 240 hours)?
Its value is “about twice the blood concentration”.

And the “concentrations in blood and plasma compared” value (at 48 hours)?
The value was “similar”.

What about the “average half-life compared with the racemate” value (beagle PK study vs. racemate oral efficacy studies in mongrels) of the same compound?
Its value is “shorter than that of the racemate”.

And the Tmax (beagle, dog, plasma, po, 10 mg/kg, plasma, Beagle, oral gavage 10 mg/kg, read-out: Tmax)?
Its Tmax is 2 h.

And the CL/F (beagle, dog, plasma, po, 10 mg/kg, oral gavage 10 mg/kg)?
Its CL/F is 0.833 mL/min/kg.

And the Tmax (beagle, dog, whole blood, po, 10 mg/kg, whole blood, Beagle, oral gavage 10 mg/kg, read-out: Tmax)?
Its Tmax is 1.7 h.

And the CL/F (beagle, dog, whole blood, po, 10 mg/kg, oral gavage 10 mg/kg)?
The CL/F was 1.12 mL/min/kg.

What about the “bioconversion to the C1 (R) enantiomer in vivo” value (chiral HPLC chromatograms of all study samples, dog) of the same compound?
Its value is “No bioconversion was observed”.

What about the concentration at 1080 hr (dog, in vivo, 1080 hr, Beagle, oral 10 mg/kg) of the same compound?
Its concentration at 1080 hr is 15.7 ± 6.3 ng/mL.

What about the concentration at 0.25 hr [1] of the same compound?
The concentration at 0.25 hr was 291 ± 57 ng/mL.

And the concentration at 0.5 hr [1]?
Its concentration at 0.5 hr is 1170 ± 250 ng/mL.

And the concentration at 1 hr [1]?
Its concentration at 1 hr is 1920 ± 330 ng/mL.

And the concentration at 2 hr [1]?
Its concentration at 2 hr is 2260 ± 170 ng/mL.

And the concentration at 4 hr [1]?
Its concentration at 4 hr is 2010 ± 360 ng/mL.

What about the concentration at 8 hr [1] of the same compound?
Its concentration at 8 hr is 1110 ± 70 ng/mL.

What about the concentration at 24 hr [1] of the same compound?
Its concentration at 24 hr is 664 ± 112 ng/mL.

And the concentration at 48 hr [1]?
Its concentration at 48 hr is 567 ± 95 ng/mL.

What about the concentration at 72 hr [1] of the same compound?
Its concentration at 72 hr is 552 ± 65 ng/mL.

And the concentration at 120 hr [1]?
The concentration at 120 hr was 393 ± 67 ng/mL.

What about the concentration at 168 hr [1] of the same compound?
Its concentration at 168 hr is 298 ± 39 ng/mL.

What about the concentration at 240 hr [1] of the same compound?
The concentration at 240 hr was 270 ± 19 ng/mL.

What about the concentration at 336 hr [1] of the same compound?
Its concentration at 336 hr is 219 ± 24 ng/mL.

What about the concentration at 408 hr [1] of the same compound?
Its concentration at 408 hr is 135 ± 12 ng/mL.

What about the concentration at 504 hr [1] of the same compound?
Its concentration at 504 hr is 103 ± 15 ng/mL.

And the concentration at 600 hr [1]?
The concentration at 600 hr was 80.4 ± 11.3 ng/mL.

And the concentration at 672 hr [1]?
Its concentration at 672 hr is 55.6 ± 12.2 ng/mL.

What about the concentration at 768 hr [1] of the same compound?
Its concentration at 768 hr is 47 ± 11.9 ng/mL.

What about the concentration at 840 hr [1] of the same compound?
Its concentration at 840 hr is 37.4 ± 8.2 ng/mL.

And the concentration at 936 hr [1]?
Its concentration at 936 hr is 24.8 ± 6.4 ng/mL.

And the concentration at 1032 hr [1]?
Its concentration at 1032 hr is 18.8 ± 5.5 ng/mL.

What about the concentration at 0.25 hr [2] of the same compound?
The concentration at 0.25 hr was 412 ± 89 ng/mL.

And the concentration at 0.5 hr [2]?
Its concentration at 0.5 hr is 1660 ± 380 ng/mL.

What about the concentration at 1 hr [2] of the same compound?
Its concentration at 1 hr is 3210 ± 230 ng/mL.

What about the concentration at 2 hr [2] of the same compound?
The concentration at 2 hr was 3560 ± 570 ng/mL.

What about the concentration at 4 hr [2] of the same compound?
Its concentration at 4 hr is 2990 ± 340 ng/mL.

What about the concentration at 8 hr [2] of the same compound?
Its concentration at 8 hr is 1220 ± 170 ng/mL.

And the concentration at 24 hr [2]?
Its concentration at 24 hr is 708 ± 162 ng/mL.

What about the concentration at 48 hr [2] of the same compound?
Its concentration at 48 hr is 572 ± 128 ng/mL.

And the concentration at 72 hr [2]?
The concentration at 72 hr was 428 ± 71 ng/mL.

And the concentration at 120 hr [2]?
The concentration at 120 hr was 292 ± 56 ng/mL.

And the concentration at 168 hr [2]?
Its concentration at 168 hr is 245 ± 47 ng/mL.

What about the concentration at 240 hr [2] of the same compound?
Its concentration at 240 hr is 136 ± 20 ng/mL.

What about the concentration at 336 hr [2] of the same compound?
The concentration at 336 hr was 100 ± 6 ng/mL.

And the concentration at 408 hr [2]?
Its concentration at 408 hr is 75.8 ± 11.2 ng/mL.

What about the concentration at 504 hr [2] of the same compound?
Its concentration at 504 hr is 57.3 ± 8.5 ng/mL.

What about the concentration at 600 hr [2] of the same compound?
Its concentration at 600 hr is 41.2 ± 3.7 ng/mL.

And the concentration at 672 hr [2]?
The concentration at 672 hr was 30.5 ± 5.1 ng/mL.

What about the concentration at 768 hr [2] of the same compound?
Its concentration at 768 hr is 21.5 ± 4.2 ng/mL.

What about the concentration at 840 hr [2] of the same compound?
Its concentration at 840 hr is 17.4 ± 4.8 ng/mL.

What about the concentration at 936 hr [2] of the same compound?
Its concentration at 936 hr is 14.3 ± 3.4 ng/mL.

And the concentration at 1032 hr [2]?
The concentration at 1032 hr was 13.8 ng/mL.

What about the half-life [3] of the same compound?
Its half-life is 205 h.

What about the Cmax (dog, plasma, Beagle, oral gavage 10 mg/kg, read-out: Cmax) of the same compound?
The Cmax was 2260 ng/mL.

And the AUC(0-t) [3]?
The AUC(0-t) was 191 µg·h/mL.

And the AUC(0-inf) [3]?
Its AUC(0-inf) is 196 µg·h/mL.

What about the half-life [4] of the same compound?
Its half-life is 209 h.

And the Cmax (dog, whole blood, Beagle, oral gavage 10 mg/kg, read-out: Cmax)?
Its Cmax is 3650 ng/mL.

What about the AUC(0-t) [4] of the same compound?
The AUC(0-t) was 144 ± 11 µg·h/mL.

And the AUC(0-inf) [4]?
The AUC(0-inf) was 148 µg·h/mL.

And the “blood concentrations compared with plasma concentrations” value (first few hours post-dose)?
Its value is “significantly higher than the corresponding plasma concentrations”.

And the “affinity to red blood cells (RBC)” value (initial phase post-dose)?
Its value is “higher initial affinity to red blood cells (RBC)”.

What about the tlast (plasma, Beagle, oral gavage 10 mg/kg) of the same compound?
The tlast was 1080 h.

What about the Cl/F [5] of the same compound?
Its Cl/F is 0.84 ± 0.0467 mL/min/kg.

What about the Cmax [5] of the same compound?
Its Cmax is 2260 ± 170 ng/mL.

And the “NCA AUC0-last” value [5]?
The value was 191 ± 11 µg·h/mL.

What about the “AUC compared with the racemate” value [6] of the same compound?
Its value is “lower compared to those of the racemate”.

What about the “Cmax compared with the racemate” value [6] of the same compound?
The value was “lower compared to those of the racemate”.

And the Tmax (whole blood, Beagle, oral gavage 10 mg/kg, 10 mg/kg)?
Its Tmax is 1.67 ± 0.58 h.
